Data on 18 molecules can be found in ChEMBL document CHEMBL3813649, “The influence of halogen substituents on the biological properties of sulfur-containing flavonoids” (2016).

What all share (assay type): functional
Test [1] deals with Staphylococcus aureus. Nature of the test: Antibacterial activity against Staphylococcus aureus ATCC 25923 after 18 hrs by microbroth dilution assay.
The test system of test [2] is Escherichia coli. Nature of the test: Antibacterial activity against Escherichia coli ATCC 25922 after 18 hrs by microbroth dilution assay.
Test [3] has as its system Staphylococcus aureus. Description: Bactericidal activity against Staphylococcus aureus ATCC 25923 after 18 hrs by microbroth dilution assay. Particulars: ATCC 25923, 18 h.
For test [4], the system named is Escherichia coli. Nature of the test: Bactericidal activity against Escherichia coli ATCC 25922 after 18 hrs by microbroth dilution assay. To be noted: ATCC 25922, 18 h.
Setting [5] is: Staphylococcus aureus, ATCC 25923, 18 h, read-out: MIC.
The mark [6] stands for this setting: Escherichia coli, ATCC 25922, 18 h, read-out: MIC.

The structures appear in SMILES notation. Converted amounts (≈) assume the structure as drawn.

Regarding `CCN(CC)[c+]1sc2c(s1)C(c1ccc(Cl)cc1)Oc1ccccc1-2.F[B-](F)(F)F` (stereo not drawn), the MIC with Staphylococcus aureus [1] (setting [5]) amounted to 3.9 µg/mL; with Escherichia coli [2] (setting [6]) it was 125 µg/mL. Further, the MBC amounted to 7.81 µg/mL against Staphylococcus aureus [3] and 125 µg/mL in the test on Escherichia coli [4].
On to `CCN(CC)[c+]1sc2c(s1)C(c1ccc(Br)cc1)Oc1ccccc1-2.F[B-](F)(F)F` (stereo not drawn), for which the MIC stood at 1.95 µg/mL in the test with Staphylococcus aureus [1] (setting [5]) and 62.5 µg/mL with Escherichia coli [2] (setting [6]). Further, the MBC was 1.95 µg/mL in the test with Staphylococcus aureus [3] and 125 µg/mL against Escherichia coli [4].
Turning to `CCN(CC)[c+]1sc2c(s1)C(c1ccccc1)Oc1ccccc1-2.F[B-](F)(F)F` (stereo not drawn), the MIC in the test with Staphylococcus aureus [1] (setting [5]) and in the test on Escherichia coli [2] (setting [6]) was 62.5 µg/mL each time. The MBC in the test with Staphylococcus aureus [3] and against Escherichia coli [4] was 250 µg/mL in each case.
Turning to `CCN(CC)[c+]1sc2c(s1)C(c1ccc(Br)cc1)Oc1ccc(Cl)cc1-2.F[B-](F)(F)F` (stereo not drawn), the MIC amounted to 0.24 µg/mL in the test on Staphylococcus aureus [1] (setting [5]) and 3.9 µg/mL in the test on Escherichia coli [2] (setting [6]). Further, the minimum bactericidal concentration (MBC) is 3.9 µg/mL in the test with Staphylococcus aureus [3] and 1.95 µg/mL against Escherichia coli [4].
As to `CCN(CC)[c+]1sc2c(s1)C(c1ccccc1)Oc1ccc(F)cc1-2.F[B-](F)(F)F` (stereo not drawn), the MIC amounted to 7.81 µg/mL in the test on Staphylococcus aureus [1] (setting [5]) and 62.5 µg/mL with Escherichia coli [2] (setting [6]). The MBC against Staphylococcus aureus [3] stood at 15.6 µg/mL; in the test on Escherichia coli [4], 125 µg/mL.
For `CCN(CC)[c+]1sc2c(s1)C(c1ccc(I)cc1)Oc1ccccc1-2.F[B-](F)(F)F` (stereo not drawn), the figures for the MIC with Staphylococcus aureus [1] (setting [5]) and with Escherichia coli [2] (setting [6]) were 0.97 µg/mL and 31.2 µg/mL, respectively. Also, the MBC against Staphylococcus aureus [3] was found to be 1.95 µg/mL; against Escherichia coli [4], 62.5 µg/mL.
With `CCN(CC)[c+]1sc2c(s1)C(c1ccc(Cl)cc1)Oc1ccc(F)cc1-2.F[B-](F)(F)F` (stereo not drawn), the MIC stood at 3.9 µg/mL in the test with Staphylococcus aureus [1] (setting [5]) and 15.6 µg/mL in the test on Escherichia coli [2] (setting [6]). For the same molecule, the minimal bactericidal concentration (MBC) in the test on Staphylococcus aureus [3] turned out to be 7.81 µg/mL; in the test with Escherichia coli [4] it was 15.6 µg/mL.
For the molecule `CCN(CC)[c+]1sc2c(s1)C(c1ccc(I)cc1)Oc1ccc(F)cc1-2.F[B-](F)(F)F` (stereo not drawn), the MIC was found to be 1.95 µg/mL in the test on Staphylococcus aureus [1] (setting [5]) and 3.9 µg/mL in the test on Escherichia coli [2] (setting [6]). Also, the MBC in the test with Staphylococcus aureus [3] amounted to 0.97 µg/mL; with Escherichia coli [4] it was 7.81 µg/mL.
Take `CCN(CC)[c+]1sc2c(s1)C(c1ccc(F)cc1)Oc1ccc(F)cc1-2.F[B-](F)(F)F` (stereo not drawn): the results for the MIC in the test on Staphylococcus aureus [1] (setting [5]) and with Escherichia coli [2] (setting [6]) were 7.81 µg/mL and 15.6 µg/mL, respectively. Also, the MBC stood at 3.9 µg/mL in the test with Staphylococcus aureus [3] and 125 µg/mL in the test with Escherichia coli [4].
The corresponding values for `CCN(CC)[c+]1sc2c(s1)C(c1ccc(I)cc1)Oc1ccc(Cl)cc1-2.F[B-](F)(F)F` (stereo not drawn) are 0.24 µg/mL, 1.95 µg/mL, 0.48 µg/mL and 0.97 µg/mL.
For `CCN(CC)[c+]1sc2c(s1)C(c1ccc(Br)cc1)Oc1ccc(F)cc1-2.F[B-](F)(F)F` (stereo not drawn), the MIC was 1.95 µg/mL in the test on Staphylococcus aureus [1] (setting [5]) and 7.81 µg/mL with Escherichia coli [2] (setting [6]). Also, the values for the MBC against Staphylococcus aureus [3] and in the test on Escherichia coli [4] were 7.81 µg/mL and 15.6 µg/mL, respectively.
Regarding `CCN(CC)[c+]1sc2c(s1)C(c1ccc(F)cc1)Oc1ccccc1-2.F[B-](F)(F)F` (stereo not drawn), the MIC was 7.81 µg/mL with Staphylococcus aureus [1] (setting [5]) and 125 µg/mL in the test with Escherichia coli [2] (setting [6]). Moreover, the values for the MBC with Staphylococcus aureus [3] and in the test with Escherichia coli [4] were 7.81 µg/mL and 125 µg/mL, respectively.
As for `CCN(CC)[c+]1sc2c(s1)C(c1ccc(Cl)cc1)Oc1ccc(Cl)cc1-2.F[B-](F)(F)F` (stereo not drawn), the MIC with Staphylococcus aureus [1] (setting [5]) is 0.24 µg/mL; in the test with Escherichia coli [2] (setting [6]) it was 3.9 µg/mL. Besides, the minimal bactericidal concentration (MBC) in the test with Staphylococcus aureus [3] stood at 0.48 µg/mL; against Escherichia coli [4], 3.9 µg/mL.
`CCN(CC)[c+]1sc2c(s1)C(c1ccccc1)Oc1ccc(Cl)cc1-2.F[B-](F)(F)F` (stereo not drawn): the MIC in the test on Staphylococcus aureus [1] (setting [5]) worked out at 3.9 µg/mL; in the test with Escherichia coli [2] (setting [6]), 62.5 µg/mL. The results for the minimum bactericidal concentration (MBC) against Staphylococcus aureus [3] and in the test on Escherichia coli [4] were 3.9 µg/mL and 125 µg/mL, respectively.
Regarding `CCN(CC)[c+]1sc2c(s1)C(c1ccc(F)cc1)Oc1ccc(Cl)cc1-2.F[B-](F)(F)F` (stereo not drawn), the MIC came to 1.95 µg/mL in the test on Staphylococcus aureus [1] (setting [5]) and 15.6 µg/mL in the test with Escherichia coli [2] (setting [6]). For the same molecule, the MBC came to 3.9 µg/mL against Staphylococcus aureus [3] and 15.6 µg/mL in the test on Escherichia coli [4].
On to `CC1(C)S[C@@H]2[C@H](NC(=O)[C@H](N)c3ccccc3)C(=O)N2[C@H]1C(=O)O` [AMPICILLIN], for which the MIC in the test with Staphylococcus aureus [1] (setting [5]) and with Escherichia coli [2] (setting [6]) was 7.81 µg/mL (≈ 22.4 µM) throughout.
For `C[S+](C)[O-]` [DIMETHYL SULFOXIDE], the MIC in the test on Staphylococcus aureus [1] is on record as 250 uL/ml; against Escherichia coli [2], 125 uL/ml.
Consider `NC[C@H]1O[C@H](O[C@H]2[C@H](O)[C@@H](O[C@H]3O[C@H](CO)[C@@H](O)[C@H](N)[C@H]3O)[C@H](N)C[C@@H]2N)[C@H](O)[C@@H](O)[C@@H]1O` [KANAMYCIN], for which the MIC with Staphylococcus aureus [1] (setting [5]) worked out at 1.95 µg/mL (≈ 4.02 µM); with Escherichia coli [2] (setting [6]) it was 7.81 µg/mL (≈ 16.1 µM). Moreover, the minimal bactericidal concentration (MBC) worked out at 1.95 µg/mL (≈ 4.02 µM) against Staphylococcus aureus [3] and 7.81 µg/mL (≈ 16.1 µM) with Escherichia coli [4].
